Test results as given in US8609836B2, “4-aryl-2-anilino-pyrimidines” (Janssen Pharmaceutica NV, priority 2008, dated 2013).

Assays:
PLK4 (h) = PLK4 (h) (Homo sapiens, UniProt O00444); experiment: PLK-4 human kinase inhibition, scintillation proximity assay (SPA); type: biochemical; conditions: read-out: PLK4 pIC50 (converted)
GSK3β (h) = GSK3β (h) (Homo sapiens, UniProt P49841); experiment: GSK-3β human kinase inhibition, SPA; type: biochemical; conditions: read-out: GSK3b pIC50 (converted)
In short: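 Radiometric: 33P-labelled peptide captured on streptavidin SPA beads after EDTA stop and imaged on Leadseeker. Reaction ran 1 h at RT, 1 μM cold ATP with 2 nM [γ-33P]ATP, 1 μM biotin-peptide substrate, human GSK3β 1 μg/ml, pH 7.4 Tris buffer.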

CDK4/CyclinD1 (h) = CDK4/CyclinD1 (h) (Homo sapiens, UniProt P11802); experiment: CDK4/CyclinD1 human kinase inhibition, SPA with GST-pRb substrate; type: biochemical; conditions: read-out: CDK4 pIC50 (converted)
In short: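 Scintillation proximity format: after EDTA/Triton stop containing glutathione SPA beads, 33P incorporation was counted. The reaction ran 60 min at room temperature in Hepes pH 7.5 with NaF, MgCl2, DTT, using 2.5 μg/ml human CDK4/CyclinD1, 40 μg/ml GST-pRb substrate and 2 nM [γ-33P]ATP.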

PLK1 T210D (h) = PLK1 T210D (h) (Homo sapiens, UniProt P53350, T210D); experiment: PLK1 human kinase inhibition, SPA; type: biochemical; conditions: read-out: PLK1 pIC50 (converted)
In short: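 Kinase incubated 40 min at room temperature with 0.1 μM ATP (2 nM [γ-33P]ATP tracer), 2 μM biotinylated peptide, pH 8.0 Hepes buffer with 2 mM MnCl2 and 1 mM DTT; enzyme at 0.125 ng/ml. Stopped with EDTA; 33P-peptide bound to streptavidin scintillant beads and imaged.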

PLK2 (h) = PLK2 (h) (Homo sapiens, UniProt Q9NYY3); experiment: PLK2 human kinase inhibition, SPA; type: biochemical; conditions: read-out: PLK2 pIC50 (converted)
In short: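 33P incorporation into a biotinylated peptide (2 μM) was captured on streptavidin PVT beads and imaged on Leadseeker. Enzyme at 30 μg/ml, ATP 0.1 μM with 2 nM [γ-33P]ATP, Hepes pH 8.0 with MnCl2 and DTT. Incubation was 20 min at room temperature.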

HCT-116 = experiment: Cellular proliferation assay (Alamar blue), HCT-116; type: cell-based; conditions: Homo sapiens, 10% FCS, 72 hours with compound, Alamar blue 4 h
In short: (§1)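 Alamar blue fluorescence (544/590 nm) measured viable cells after 72 h compound exposure; dye incubation 4 h (HCT-116), 6 h (U87-MG) or 24 h (A2780, MDA-MB-231). Cells pre-seeded 24 h, grown in 10% FCS, 37° C, 5% CO2; effect expressed relative to control cells.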

H1299 = experiment: Cellular proliferation assay (Alamar blue), H1299; type: cell-based; conditions: Homo sapiens, NCI-H1299; 10% FCS; 72 hours with compound; Alamar blue 4 h
In short: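 This proliferation assay on NCI-H1299 cells used an initial 24-hour compound-free incubation after seeding, followed by 72 hours of compound treatment with 10% FCS serum at 37° C. and 5% (v/v) CO2. Viable cells were quantified by a 4 h Alamar blue incubation and fluorescent plate reading at 544 nm/590 nm, and effects were expressed relative to control cells.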

U87-MG = experiment: Cellular proliferation assay (Alamar blue), U87-MG; type: cell-based; conditions: Homo sapiens, U-87 MG; 10% FCS; 72 hours with compound; Alamar blue 6 h; read-out: U87-MG (cellular proliferation assay, Table 4) (converted)
In short: as §1

A2780 = experiment: Cellular proliferation assay (Alamar blue), A2780; type: cell-based; conditions: Homo sapiens, 10% FCS, 72 hours with compound, Alamar blue 24 h, read-out: A2780 (cellular proliferation assay, Table 4) (converted)
In short: as §1

MDA-MB-231 = experiment: Cellular proliferation assay (Alamar blue), MDA-MB-231; type: cell-based; conditions: Homo sapiens, 10% FCS, 72 hours with compound, Alamar blue 24 h, read-out: MDA/MB231 (cellular proliferation assay, Table 4) (converted)
In short: as §1

Chain of PLK1 T210D (h) (P53350 whole entry T210D): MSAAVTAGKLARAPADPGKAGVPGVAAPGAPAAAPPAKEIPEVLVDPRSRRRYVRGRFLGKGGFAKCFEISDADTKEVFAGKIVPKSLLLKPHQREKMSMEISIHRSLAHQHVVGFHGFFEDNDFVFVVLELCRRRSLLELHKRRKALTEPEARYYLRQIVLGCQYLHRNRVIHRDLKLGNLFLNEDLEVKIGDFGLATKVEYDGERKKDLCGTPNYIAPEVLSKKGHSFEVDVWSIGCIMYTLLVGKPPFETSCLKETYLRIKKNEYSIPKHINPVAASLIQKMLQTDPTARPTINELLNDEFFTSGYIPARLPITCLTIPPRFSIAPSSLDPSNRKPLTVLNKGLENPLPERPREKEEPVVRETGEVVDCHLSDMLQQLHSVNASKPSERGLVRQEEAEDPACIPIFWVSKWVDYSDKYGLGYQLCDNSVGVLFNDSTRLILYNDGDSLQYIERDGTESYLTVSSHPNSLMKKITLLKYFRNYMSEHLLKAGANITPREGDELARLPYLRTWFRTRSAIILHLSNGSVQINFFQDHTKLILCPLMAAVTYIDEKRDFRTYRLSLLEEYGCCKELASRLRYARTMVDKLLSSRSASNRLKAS
Chain of GSK3β (h) (P49841 whole entry): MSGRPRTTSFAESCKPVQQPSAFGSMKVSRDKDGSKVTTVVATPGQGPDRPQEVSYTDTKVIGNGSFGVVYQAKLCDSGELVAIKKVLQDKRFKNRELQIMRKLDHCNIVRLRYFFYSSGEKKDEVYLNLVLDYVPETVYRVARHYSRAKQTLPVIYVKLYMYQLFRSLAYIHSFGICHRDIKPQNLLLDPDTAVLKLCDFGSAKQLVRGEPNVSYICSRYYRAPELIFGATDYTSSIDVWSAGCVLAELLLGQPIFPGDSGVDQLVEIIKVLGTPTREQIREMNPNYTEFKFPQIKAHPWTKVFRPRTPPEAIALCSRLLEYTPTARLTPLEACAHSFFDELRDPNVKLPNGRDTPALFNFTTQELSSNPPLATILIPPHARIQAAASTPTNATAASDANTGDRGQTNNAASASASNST
Chain of CDK4/CyclinD1 (h) (P11802 whole entry): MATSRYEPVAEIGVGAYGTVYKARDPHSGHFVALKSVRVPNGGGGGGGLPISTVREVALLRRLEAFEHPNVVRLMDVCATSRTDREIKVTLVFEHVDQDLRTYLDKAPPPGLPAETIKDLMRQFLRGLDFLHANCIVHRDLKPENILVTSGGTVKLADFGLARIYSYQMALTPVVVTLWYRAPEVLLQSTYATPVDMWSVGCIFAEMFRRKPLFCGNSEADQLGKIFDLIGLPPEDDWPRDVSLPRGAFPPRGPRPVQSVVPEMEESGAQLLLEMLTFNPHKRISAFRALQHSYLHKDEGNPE
Chain of CDK4/CyclinD1 (h) (P24385 whole entry partner): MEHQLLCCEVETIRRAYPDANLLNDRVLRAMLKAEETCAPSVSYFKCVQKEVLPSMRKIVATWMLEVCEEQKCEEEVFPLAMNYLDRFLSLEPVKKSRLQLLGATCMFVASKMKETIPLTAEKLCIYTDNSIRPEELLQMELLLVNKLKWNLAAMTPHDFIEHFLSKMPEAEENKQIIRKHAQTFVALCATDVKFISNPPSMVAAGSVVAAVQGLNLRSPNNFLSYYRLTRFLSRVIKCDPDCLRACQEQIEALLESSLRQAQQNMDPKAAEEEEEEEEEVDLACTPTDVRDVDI
Chain of PLK2 (h) (Q9NYY3 whole entry): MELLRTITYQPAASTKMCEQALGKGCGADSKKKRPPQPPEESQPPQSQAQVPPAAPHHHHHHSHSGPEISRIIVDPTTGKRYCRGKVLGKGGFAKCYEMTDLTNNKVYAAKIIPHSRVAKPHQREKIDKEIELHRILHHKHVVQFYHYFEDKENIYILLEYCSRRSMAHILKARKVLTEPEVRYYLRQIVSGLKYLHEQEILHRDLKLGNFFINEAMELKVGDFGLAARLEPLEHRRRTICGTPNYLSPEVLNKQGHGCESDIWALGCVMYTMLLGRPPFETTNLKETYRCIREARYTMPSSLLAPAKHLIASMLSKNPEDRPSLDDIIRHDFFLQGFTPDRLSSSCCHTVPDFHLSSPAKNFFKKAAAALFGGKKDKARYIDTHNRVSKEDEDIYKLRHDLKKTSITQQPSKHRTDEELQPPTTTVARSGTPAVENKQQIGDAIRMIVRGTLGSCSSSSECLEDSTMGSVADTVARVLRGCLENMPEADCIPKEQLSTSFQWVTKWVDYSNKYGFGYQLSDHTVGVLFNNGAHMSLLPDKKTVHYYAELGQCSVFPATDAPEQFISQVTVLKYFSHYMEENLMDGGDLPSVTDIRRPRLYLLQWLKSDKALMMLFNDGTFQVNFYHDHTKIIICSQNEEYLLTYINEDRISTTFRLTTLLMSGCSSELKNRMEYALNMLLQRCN
Chain of PLK4 (h) (O00444 whole entry): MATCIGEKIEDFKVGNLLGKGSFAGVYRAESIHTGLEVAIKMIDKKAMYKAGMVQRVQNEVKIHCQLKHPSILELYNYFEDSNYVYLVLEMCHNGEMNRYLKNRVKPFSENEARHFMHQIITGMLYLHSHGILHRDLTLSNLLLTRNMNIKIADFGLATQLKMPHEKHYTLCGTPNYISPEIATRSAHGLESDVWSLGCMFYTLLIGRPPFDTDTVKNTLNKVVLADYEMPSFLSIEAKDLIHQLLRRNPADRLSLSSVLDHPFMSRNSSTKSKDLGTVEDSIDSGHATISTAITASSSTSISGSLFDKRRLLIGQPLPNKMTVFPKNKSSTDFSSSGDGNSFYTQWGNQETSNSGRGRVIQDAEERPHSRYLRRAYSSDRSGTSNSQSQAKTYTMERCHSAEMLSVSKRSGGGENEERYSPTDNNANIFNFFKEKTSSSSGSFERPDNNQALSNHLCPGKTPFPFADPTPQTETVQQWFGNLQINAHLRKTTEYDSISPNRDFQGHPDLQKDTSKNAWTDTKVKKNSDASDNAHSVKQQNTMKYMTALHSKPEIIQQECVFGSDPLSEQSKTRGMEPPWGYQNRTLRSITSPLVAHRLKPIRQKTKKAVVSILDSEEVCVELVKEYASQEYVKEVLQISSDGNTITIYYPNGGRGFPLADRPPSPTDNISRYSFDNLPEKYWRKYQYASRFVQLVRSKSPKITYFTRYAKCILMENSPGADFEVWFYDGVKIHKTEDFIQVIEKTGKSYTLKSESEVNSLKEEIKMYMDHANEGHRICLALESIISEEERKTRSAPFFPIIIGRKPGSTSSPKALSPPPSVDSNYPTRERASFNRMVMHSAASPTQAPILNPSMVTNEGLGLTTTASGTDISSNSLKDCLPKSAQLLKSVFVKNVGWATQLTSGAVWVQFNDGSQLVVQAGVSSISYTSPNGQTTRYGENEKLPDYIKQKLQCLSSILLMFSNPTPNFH

SMILES	IC50 (PLK4 (h)) [µM]	IC50 (GSK3β (h)) [µM]	IC50 (CDK4/CyclinD1 (h)) [µM]	IC50 (PLK1 T210D (h)) [µM]	IC50 (PLK2 (h)) [µM]	IC50 (HCT-116) [µM]	IC50 (H1299) [µM]	IC50 (U87-MG) [µM]	IC50 (A2780) [µM]	IC50 (MDA-MB-231) [µM]
C[C@@H]1NCc2ccc(Cl)c(c2)Nc2nccc(n2)-c2cccc(c2)CNC1=O [Compound 186]	1.02	> 10	> 10	> 10	> 10	> 10	> 10	> 10	> 10	> 10
O=C1NCc2cccc(c2)-c2ccnc(n2)Nc2cccc(c2)CN[C@H]1CO [Compound 187]	1.07	0.0537	1.2	> 10	> 10	1.35	6.17	> 10	5.5	7.94
O=C1NCc2cccc(c2)-c2ccnc(n2)Nc2cc(ccc2Cl)CN[C@H]1CO [Compound 188]	2.09	6.61	> 10	> 10	> 10	> 10	> 10	> 10	> 10	> 10
O=C1NCc2cccc(c2)-c2ccnc(n2)Nc2cc(ccc2Cl)CN[C@H]1Cc1ccccc1 [Compound 189]	> 10	6.92	5.75	> 10	> 10	> 10	> 10	> 10	> 10	> 10
C[C@@H]1NCc2ccc(cc2)Nc2nccc(n2)-c2cccc(c2)CNC1=O [Compound 190]	> 10	1.29	> 10	> 10	> 10	> 10	> 10	> 10	> 10	> 10
O=C1NCc2cccc(c2)-c2ccnc(n2)Nc2ccc(cc2)CN[C@H]1Cc1ccccc1 [Compound 192]	> 10	> 10	> 10	> 10	> 10	> 10	> 10	> 10	> 10	> 10
O=C1CN2CCN(CC2)Cc2ccc(cc2)Nc2nccc(n2)-c2cccc(c2)CN1 [Compound 193]	> 10	3.24	4.37	> 10	> 10	> 10	> 10	> 10	> 10	> 10
O=C1CN2CCN(CC2)Cc2cc(ccc2N2CCOCC2)Nc2nccc(n2)-c2ccc(cc2)CN1 [Compound 194]	1.12	6.03	1.7	> 10	> 10	> 10	> 10	> 10	> 10	> 10
O=C1CN2CCN(CC2)Cc2ccc(Cl)c(c2)Nc2nccc(n2)-c2cccc(c2)CN1 [Compound 195]	> 10	> 10	> 10	> 10	> 10	> 10	> 10	> 10	> 10	> 10
O=C1CN2CCN(CC2)Cc2cccc(c2)Nc2nccc(n2)-c2cccc(c2)CN1 [Compound 196]	> 10	1.07	6.17	> 10	> 10	> 10	> 10	> 10	> 10	> 10
